{"source": "ChEMBL document CHEMBL3045068", "about": "“Effect of methomyl and oxamyl soil applications on early control of nematodes and insects” (Pest Manag Sci, 2011)", "key": {"[1]": {"system": "Phaseolus lunatus", "test": "Phytotoxicity in Phaseolus lunatus (lima bean) plant assessed as plant dry weight at 2.24 kg ai/ha applied to soil measured up to 7 days under green house conditions (reference value: 1.20 +/- 0.21 g)", "type": "organism-based", "settings": "in vivo, other, 168 h"}, "[2]": {"system": "Meloidogyne incognita", "test": "Nematicidal activity against second juvenile stage of Meloidogyne incognita (root-knot nematode) infected pea plant assessed as root dry weight at 1.68 kg ai/ha applied to soil measured up to 14 days post planting under green house conditions (reference value: 0.25 +/- 0.041 g)", "type": "functional"}, "[3]": {"system": "Meloidogyne incognita", "test": "Nematicidal activity against second juvenile stage of Meloidogyne incognita (root-knot nematode) infected lima bean plant assessed as root dry weight at 1.12 kg ai/ha applied to soil measured during planting under green house conditions (reference value: 0.5 +/- 0.052 g)", "type": "functional"}, "[4]": {"system": "Meloidogyne incognita", "test": "Nematicidal activity against second juvenile stage of Meloidogyne incognita (root-knot nematode) infected pea plant assessed as plant fresh weight at 1.12 kg ai/ha applied to soil measured up to 7 days post planting under green house conditions (reference value: 4.3 +/- 0.56 g)", "type": "functional"}, "[5]": {"system": "Meloidogyne incognita", "test": "Nematicidal activity against second juvenile stage of Meloidogyne incognita (root-knot nematode) infected pea plant assessed as root fresh weight at 0.56 kg ai/ha applied to soil under green house conditions (reference value: 1.83 +/- 0.3 g)", "type": "functional"}, "[6]": {"system": "Phaseolus lunatus", "test": "Phytotoxicity in Phaseolus lunatus (lima bean) plant assessed as emergence at 2.24 kg ai/ha applied to soil measured up to 7 days under green house conditions (reference value: 70 +/- 16%)", "type": "organism-based", "settings": "in vivo, other, 168 h"}, "[7]": {"system": "Phaseolus lunatus", "test": "Phytotoxicity in Phaseolus lunatus (lima bean) plant assessed as emergence at 1.12 kg ai/ha applied to soil measured up to 7 days under green house conditions (reference value: 70 +/- 16%)", "type": "organism-based", "settings": "in vivo, other, 168 h"}, "[8]": {"system": "Meloidogyne incognita", "test": "Nematicidal activity against second juvenile stage of Meloidogyne incognita (root-knot nematode) infected pea plant assessed as emergence at 1.68 kg ai/ha applied to soil measured up to 14 days under green house conditions (reference value: 75 +/- 13%)", "type": "functional"}, "[9]": {"system": "Phaseolus lunatus", "test": "Phytotoxicity in Phaseolus lunatus (lima bean) root assessed as root dry weight at 2.24 kg ai/ha applied to soil measured up to 7 days under green house conditions (reference value: 0.36 +/- 0.071 g)", "type": "organism-based", "settings": "in vivo, other, 168 h"}, "[10]": {"system": "Meloidogyne incognita", "test": "Nematicidal activity against second juvenile stage of Meloidogyne incognita (root-knot nematode) infected pea plant assessed as plant fresh weight at 0.56 kg ai/ha applied to soil under green house conditions (reference value: 4.3 +/- 0.56 g)", "type": "functional"}, "[11]": {"system": "Meloidogyne incognita", "test": "Nematicidal activity against second juvenile stage of Meloidogyne incognita (root-knot nematode) assessed as mortality after 48 hr", "type": "functional"}, "[12]": {"system": "Meloidogyne incognita", "test": "Nematicidal activity against second juvenile stage of Meloidogyne incognita (root-knot nematode) infected lima bean plant assessed as emergence at 0.56 kg ai/ha applied to soil measured during planting under green house conditions (reference value: 83 +/- 5%)", "type": "functional"}, "[13]": {"system": "Meloidogyne incognita", "test": "Nematicidal activity against second juvenile stage of Meloidogyne incognita (root-knot nematode) infected pea plant assessed as reduction in root gall index at 0.56 kg ai/ha applied to soil under green house conditions (reference value: 9.7 +/- 0.30%)", "type": "functional"}, "[14]": {"system": "Meloidogyne incognita", "test": "Nematicidal activity against second juvenile stage of Meloidogyne incognita (root-knot nematode) infected lima bean plant assessed as root dry weight at 0.56 kg ai/ha applied to soil measured during planting under green house conditions (reference value: 0.5 +/- 0.052 g)", "type": "functional"}, "[15]": {"system": "Phaseolus lunatus", "test": "Phytotoxicity in Phaseolus lunatus (lima bean) root assessed as root dry weight at 1.12 kg ai/ha applied to soil measured up to 7 days under green house conditions (reference value: 0.36 +/- 0.071 g)", "type": "organism-based", "settings": "in vivo, other, 168 h"}, "[16]": {"system": "Meloidogyne incognita", "test": "Nematicidal activity against second juvenile stage of Meloidogyne incognita (root-knot nematode) assessed as mortality after 72 hr", "type": "functional"}, "[17]": {"system": "Meloidogyne incognita", "test": "Nematicidal activity against second juvenile stage of Meloidogyne incognita (root-knot nematode) infected pea plant assessed as reduction in root gall index at 1.68 kg ai/ha applied to soil measured up to 14 days post planting under green house conditions (reference value: 9.7 +/- 0.30%)", "type": "functional"}, "[18]": {"system": "Meloidogyne incognita", "test": "Nematicidal activity against second juvenile stage of Meloidogyne incognita (root-knot nematode) infected pea plant assessed as root fresh weight at 1.68 kg ai/ha applied to soil measured up to 14 days post planting under green house conditions (reference value: 1.83 +/- 0.3 g)", "type": "functional"}, "[19]": {"system": "Meloidogyne incognita", "test": "Nematicidal activity against second juvenile stage of Meloidogyne incognita (root-knot nematode) infected pea plant assessed as emergence at 1.12 kg ai/ha applied to soil measured up to 7 days under green house conditions (reference value: 75 +/- 13%)", "type": "functional"}, "[20]": {"system": "Phaseolus lunatus", "test": "Phytotoxicity in Phaseolus lunatus (lima bean) plant assessed as plant dry weight at 1.12 kg ai/ha applied to soil measured up to 7 days under green house conditions (reference value: 1.20 +/- 0.21 g)", "type": "organism-based", "settings": "in vivo, other, 168 h"}, "[21]": {"system": "Meloidogyne incognita", "test": "Nematicidal activity against second juvenile stage of Meloidogyne incognita (root-knot nematode) infected lima bean plant assessed as reduction in root gall index at 1.12 kg ai/ha applied to soil measured during planting under green house conditions (reference value: 7 +/- 0.27%)", "type": "functional"}, "[22]": {"system": "Meloidogyne incognita", "test": "Nematicidal activity against second juvenile stage of Meloidogyne incognita (root-knot nematode) infected pea plant assessed as root fresh weight at 1.12 kg ai/ha applied to soil measured up to 7 days post planting under green house conditions (reference value: 1.83 +/- 0.3 g)", "type": "functional"}, "[23]": {"system": "Meloidogyne incognita", "test": "Nematicidal activity against second juvenile stage of Meloidogyne incognita (root-knot nematode) infected lima bean plant assessed as reduction in root gall index at 0.56 kg ai/ha applied to soil measured during planting under green house conditions (reference value: 7 +/- 0.27%)", "type": "functional"}, "[24]": {"system": "Meloidogyne incognita", "test": "Nematicidal activity against second juvenile stage of Meloidogyne incognita (root-knot nematode) infected pea plant assessed as reduction in root gall index at 1.12 kg ai/ha applied to soil measured up to 7 days post planting under green house conditions (reference value: 9.7 +/- 0.30%)", "type": "functional"}, "[25]": {"system": "Meloidogyne incognita", "test": "Nematicidal activity against second juvenile stage of Meloidogyne incognita (root-knot nematode) infected pea plant assessed as root dry weight at 1.12 kg ai/ha applied to soil measured up to 7 days post planting under green house conditions (reference value: 0.25 +/- 0.041 g)", "type": "functional"}, "[26]": {"system": "Meloidogyne incognita", "test": "Nematicidal activity against second juvenile stage of Meloidogyne incognita (root-knot nematode) infected lima bean plant assessed as shoot dry weight at 0.56 kg ai/ha applied to soil measured during planting under green house conditions (reference value: 1.84 +/- 0.18 g)", "type": "functional"}, "[27]": {"system": "Meloidogyne incognita", "test": "Nematicidal activity against second juvenile stage of Meloidogyne incognita (root-knot nematode) infected pea plant assessed as plant fresh weight at 1.68 kg ai/ha applied to soil measured up to 7 days post planting under green house conditions (reference value: 4.3 +/- 0.56 g)", "type": "functional"}, "[28]": {"system": "Meloidogyne incognita", "test": "Nematicidal activity against second juvenile stage of Meloidogyne incognita (root-knot nematode) infected lima bean plant assessed as shoot dry weight at 1.12 kg ai/ha applied to soil measured during planting under green house conditions (reference value: 1.84 +/- 0.18 g)", "type": "functional"}, "[29]": {"system": "Meloidogyne incognita", "test": "Nematicidal activity against second juvenile stage of Meloidogyne incognita (root-knot nematode) infected lima bean plant assessed as emergence at 1.12 kg ai/ha applied to soil measured during planting under green house conditions (reference value: 83 +/- 5%)", "type": "functional"}, "[30]": {"system": "Meloidogyne incognita", "test": "Nematicidal activity against second juvenile stage of Meloidogyne incognita (root-knot nematode) infested soil containing cucumber seeds assessed as mortality applied post seed germination measured after 7 days under green house conditions", "type": "functional"}, "[31]": {"system": "Meloidogyne incognita", "test": "Nematicidal activity against second juvenile stage of Meloidogyne incognita (root-knot nematode) infected pea plant assessed as root dry weight at 0.56 kg ai/ha applied to soil under green house conditions (reference value: 0.25 +/- 0.041 g)", "type": "functional"}, "[32]": {"system": "Meloidogyne incognita", "test": "Nematicidal activity against second juvenile stage of Meloidogyne incognita (root-knot nematode) infected pea plant assessed as emergence at 0.56 kg ai/ha applied to soil under green house conditions (reference value: 75 +/- 13%)", "type": "functional"}}}
{"smiles": "CNC(=O)O/N=C(\\SC)C(=O)N(C)C", "note": "[OXAMYL]", "values": [{"measurement": "Activity", "setting": "[1]", "result": 1.79, "unit": "g"}, {"measurement": "Activity", "setting": "[2]", "result": 0.29, "unit": "g"}, {"measurement": "Activity", "setting": "[3]", "result": 0.41, "unit": "g"}, {"measurement": "Activity", "setting": "[4]", "result": 6, "unit": "g"}, {"measurement": "Activity", "setting": "[5]", "result": 1.36, "unit": "g"}, {"measurement": "Activity", "setting": "[6]", "result": 70, "unit": "%"}, {"measurement": "Activity", "setting": "[7]", "result": 80, "unit": "%"}, {"measurement": "Activity", "setting": "[8]", "result": 75, "unit": "%"}, {"measurement": "Activity", "setting": "[9]", "result": 0.6, "unit": "g"}, {"measurement": "Activity", "setting": "[10]", "result": 4.4, "unit": "g"}, {"measurement": "LC90", "setting": "[11]", "result": 11.5, "unit": "mg/L"}, {"measurement": "LC50", "setting": "[11]; Meloidogyne incognita, Juvenile stage, 48 h", "result": 4, "unit": "µg/mL"}, {"measurement": "Activity", "setting": "[12]", "result": 83, "unit": "%"}, {"measurement": "Root_galling_index", "setting": "[13]", "result": 0, "unit": "%"}, {"measurement": "Activity", "setting": "[14]", "result": 0.31, "unit": "g"}, {"measurement": "Activity", "setting": "[15]", "result": 0.35, "unit": "g"}, {"measurement": "LC90", "setting": "[16]", "result": 2.5, "unit": "mg/L"}, {"measurement": "LC50", "setting": "[16]; Meloidogyne incognita, Juvenile stage, 72 h", "result": 1.7, "unit": "µg/mL"}, {"measurement": "Root_galling_index", "setting": "[17]", "result": 0, "unit": "%"}, {"measurement": "Activity", "setting": "[18]", "result": 1.76, "unit": "g"}, {"measurement": "Activity", "setting": "[19]", "result": 63, "unit": "%"}, {"measurement": "Activity", "setting": "[20]", "result": 1.48, "unit": "g"}, {"measurement": "Root_galling_index", "setting": "[21]", "result": 0, "unit": "%"}, {"measurement": "Activity", "setting": "[22]", "result": 1.61, "unit": "g"}, {"measurement": "Root_galling_index", "setting": "[23]", "result": 0, "unit": "%"}, {"measurement": "Root_galling_index", "setting": "[24]", "result": 0, "unit": "%"}, {"measurement": "Activity", "setting": "[25]", "result": 0.31, "unit": "g"}, {"measurement": "Activity", "setting": "[26]", "result": 1.09, "unit": "g"}, {"measurement": "Activity", "setting": "[27]", "result": 7.1, "unit": "g"}, {"measurement": "Activity", "setting": "[28]", "result": 1.49, "unit": "g"}, {"measurement": "Activity", "setting": "[29]", "result": 100, "unit": "%"}, {"measurement": "LC90", "setting": "[30]", "result": 12, "unit": "mg/L"}, {"measurement": "LC50", "setting": "[30]; Meloidogyne incognita, Juvenile stage, 168 h", "result": 2.8, "unit": "µg/mL"}, {"measurement": "Activity", "setting": "[31]", "result": 0.17, "unit": "g"}, {"measurement": "Activity", "setting": "[32]", "result": 63, "unit": "%"}]}
